Measurements as given in US20080107603A1, “Neuroprotectant methods, compositions, and screening methods thereof” (priority 2002, published 2008).
Where two headings read alike, the source gives them in different places.

Legend:
[1] = system: striatal dopamine content; assay: 6-OHDA lesion rat model, striatal dopamine content; format: in vivo, Sprague-Dawley rats; details: treatment before 6-OHDA lesioning
Protocol: Male Sprague-Dawley rats with starting weights 225±25 g, were housed in groups of 3 with free access to food and water, under controlled temperature (21° C.±1° C.) and a 12 hour light/dark cycle (light on 07.00 hrs). All scientific procedures were carried out with the approval of the Home Office, U.K. Rats were administered, by gavage, 70 mg/kg of ergothioneine or vehicle (sterile distilled water) daily for 4 days (n=6 per group). On the 4th day, 1 hr after L-ergothioneine or vehicle administration, rats were anaesthetized with small animal Immobilon® (0.04 ml/rat, i.m.), and 6-OHDA (5 μg dissolved in 4 μl of 0.1% ascorbic acid/saline solution) was injected onto median forebrain bundle (stereotactic co-ordinates: 2.2 mm anterior, +1.5 lateral from bregma and −7.9 ventral to dura with ear bars 5 mm below incisor bars (Datla et al. (2001) Neuroreport 12:3871, which reference is herein specifically incorporated by reference in its entirety). One week after 6-OHDA lesioning, rats were killed by cervical dislocation and the brains were dissected out immediately. A coronal section was made at the level of hypothalamus and fore brain, and hind brain parts were separated. […] Images of TH positive cells (TH+ cells) were captured by a Xillix CCD digital camera and counted automatically (Image Proplus, Datacell, U.K.). […]

PC12 cells [2] = assay: Lipid peroxidation (MDA, BIOXYTECH LPO-586); format: cell-based, Rat; details: Aβ25-35-treated PC12 cells; pretreatment for 30 min
Protocol: The extent of lipid peroxidation in PC12 cells treated with Aβ25-35 was assessed using the commercially available calorimetric assay kit BIOXYTECH LPO-586 (OXIS Research, Portland, Oreg.). After exposure to 50 μM Aβ25-35 in the presence or absence of L-ergothioneine at 37° C. for 24 h, PC12 cells were harvested and homogenized in 20 mM Tris-HCl buffer (pH 7.4), containing 0.5 mM butylated hydroxytoluene to prevent sample oxidation. After centrifugation, 3.25 volumes of diluted R1 reagent (10.3 mM N-methyl-2-phenylindole in acetonitrile) was added to the supernatant, followed by gentle vortex mixing following the addition of 0.75 ml of 37% (v/v) HCl, the mixtures were incubated at 45° C. for 60 min. After cooling and centrifugation, the absorbance of the clear supernatant was read at 590 nm. The protein concentration was determined using the BCA protein assay kit.

Bax and Bcl-XL = assay: Western blot, levels of Bax and Bcl-XL; format: cell-based, Rat; details: 25 μM Aβ25-35, 36 h
Protocol: After treatment, cells (1×10^7 cells/7 ml in 100φ dish) were collected and washed with PBS. After centrifugation, cell lysis was carried out at 4° C. by vigorous shaking for 15 min in RIPA buffer (150 mM NaCl, 1% NP-40, 0.5% sodium deoxycholate, 0.1% SDS, 50 mM Tris-HCl (pH 7.4), 50 mM glycerphosphate, 20 mM NaF, 20 mM EGTA, 1 mM DTT, 1 mM Na3VO4 and protease inhibitors). After centrifugation at 15,000 rpm for 15 min, supernatant was separated and stored at −70° C. until use. The protein concentration was determined by using the bicinchrinic acid (BCA) protein assay kit (Pierce, Rockford, Ill., USA). After addition of sample loading buffer, protein samples were electrophoresed on a 12.5% SDS-polyacrylamide gel. Proteins were transferred to polyvinylidene difluoride blots at 300 mA for 3 h. The blots were blocked for 1 h at room temperature in fresh blocking buffer (0.1% Tween-20 in Tris-buffered saline, pH 7.4 containing 5% non-fat dried milk). Dilutions (1:1000) of primary anti-poly(ADP-ribose)polymerase (PARP), anti-Bcl-XL and anti-Bax antibodies were made in PBS with 3% non-fat dry milk. Following three washes with PBST (PBS and 0.1% Tween-20), the blots were incubated with horseradish peroxidase-conjugated secondary antibodies in PBS with 3% non-fat dry milk for 1 h at room temperature. […]

[3] = Fowl; cited from earlier work
[4] = Rat; cited from earlier work
[5] = Sheep; cited from earlier work
PC12 cells [6] = assay: MTT dye reduction assay, Aβ25-35-induced cytotoxicity; format: cell-based, Rat; details: 1 mM EGT, added 30 min prior to Aβ25-35; 36 h
Protocol: PC12 cells were maintained in DMEM supplemented with 10% heat-inactivated horse serum and 5% fetal bovine serum at 37° C. in a humidified atmosphere of 10% CO2/90% air. All cells were cultured in poly-D-lysine coated culture dishes. The medium was changed every other day, and cells were plated at an appropriate density according to each experimental scale. After 24 h subculture, cells were switched to serum-free N-2 defined medium for treatment. For determination of cell viability, PC12 cells were initially plated at a density of 4×10^4 cells/300 μl in 48-well plates, and the cell viability was determined by the conventional MTT reduction and the lactate dehydrogenase (LDH) release assay as described below.
The MTT assay is a sensitive measurement of the normal metabolic status of cells, particularly that of mitochondria, which reflects early cellular redox changes. After incubation, cells were treated with the MTT solution (final concentration, 1 mg/ml) for 2 h. The dark blue formazan crystals formed in intact cells were dissolved in DMSO, and absorbance at 570 nm was measured with a microplate reader. Results were expressed as the percentage (%) of MTT reduction, assuming that the absorbance of control cells was 100%.

For `C[N+](C)(C)[C@@H](Cc1c[nH]c(=S)[nH]1)C(=O)[O-]` [L-ergothioneine, 2-mercaptohistidine trimethylbetaine], the “loss of striatal dopamine content” value [1] was “markedly reduced the loss”, the lipid peroxidation (PC12 cells [2]) was “concentration dependent inhibition” and the “ratio of Bax to Bcl-XL” value (Bax and Bcl-XL) was “substantially reduced”. For the same compound, the “L-Ergothioneine Concentration (mg/100 ml blood)” value (from here on “L-Ergothioneine Concentration”) [3] was 2-10 mg/100 ml blood, the “L-Ergothioneine Concentration” value [4] was 1-6 mg/100 ml blood and the “L-Ergothioneine Concentration” value [5] was 2-6 mg/100 ml blood. For the same compound, the “cytotoxic effect of Aβ25-35 (MTT reduction)” value (PC12 cells [6]) was “inhibited”.
